Results reported in patent EP2687213B1, “Solid forms comprising (+)-2-[1-(3-ethoxy-4-methoxyphenyl)-2-methylsulfonylethyl]-4-acetylaminoisoindoline-1,3-dione, compositions thereof, and uses thereof” (CELGENE CORPORATION, priority 2008, dated 2009).

Columns and labels:
[1] = Hygroscopicity studies (DVS moisture sorption/desorption); format: physicochemical; conditions: for solid-state transformation after full adsorption/desorption cycle (XRPD): DVS, 0% to 95% RH and back; for mass change of the starting mass of the sample: RH increased from about 0% to about 95% RH, about 25 °C; for hygroscopicity: moisture sorption analysis, 0% to 95% RH
Procedure: Hygroscopicity studies. The hygroscopicity of various solid forms was studied using a Surface Measurement Systems DVS instrument. Typically a sample size of between about 10-50 mg was loaded into the DVS instrument sample pan and the sample was analyzed on a DVS automated sorption analyzer at about 25 °C. The relative humidity was increased in increments of about 10% from about 0% to about 95% RH. The relative humidity was then decreased in a similar manner to accomplish a full adsorption/desorption cycle. The mass was recorded at periodic intervals throughout the experiment.

[2] = Compression studies (2000 psi, XRPD); conditions: 2000 psi for at least one minute
[3] = Solid form interconversion studies (slurry, XRPD); format: physicochemical; conditions: EQ in acetone:ethanol (1:1) at 25 °C, at least 2 days
Procedure: Interconversion Studies. Interconversion experiments were performed by making slurries of a solid form in a saturated solvent. The slurries were agitated for at least 2 days at about 25 °C. The saturated solution was removed by filtration and the solid was dried in the air.

[4] = Solid form stability studies (XRPD); format: physicochemical
Procedure: Stability Studies. The stabilities of Forms A, B, C and D were studied by exposing the solid samples to the stress condition of 40 °C / 75% RH for four weeks. Moreover, the stabilities of Forms A, B, C and D in different solvents were studied by equilibration in different solvents at 40 °C for four weeks. The slurries then were filtered and dried in the air. Solid samples obtained from the stability experiments were analyzed by XRPD and DSC.

[5] = biological target: PDE5 from human platelets (Homo sapiens, UniProt O76074); experiment: PDE5 enzyme assay; format: biochemical; conditions: from PDE inhibition data of Table 1
human PDE2 = human PDE2 (Homo sapiens, UniProt O00408); experiment: PDE2 enzyme assay; format: biochemical; conditions: from PDE inhibition data of Table 1
Chain of human PDE2 (O00408 whole entry): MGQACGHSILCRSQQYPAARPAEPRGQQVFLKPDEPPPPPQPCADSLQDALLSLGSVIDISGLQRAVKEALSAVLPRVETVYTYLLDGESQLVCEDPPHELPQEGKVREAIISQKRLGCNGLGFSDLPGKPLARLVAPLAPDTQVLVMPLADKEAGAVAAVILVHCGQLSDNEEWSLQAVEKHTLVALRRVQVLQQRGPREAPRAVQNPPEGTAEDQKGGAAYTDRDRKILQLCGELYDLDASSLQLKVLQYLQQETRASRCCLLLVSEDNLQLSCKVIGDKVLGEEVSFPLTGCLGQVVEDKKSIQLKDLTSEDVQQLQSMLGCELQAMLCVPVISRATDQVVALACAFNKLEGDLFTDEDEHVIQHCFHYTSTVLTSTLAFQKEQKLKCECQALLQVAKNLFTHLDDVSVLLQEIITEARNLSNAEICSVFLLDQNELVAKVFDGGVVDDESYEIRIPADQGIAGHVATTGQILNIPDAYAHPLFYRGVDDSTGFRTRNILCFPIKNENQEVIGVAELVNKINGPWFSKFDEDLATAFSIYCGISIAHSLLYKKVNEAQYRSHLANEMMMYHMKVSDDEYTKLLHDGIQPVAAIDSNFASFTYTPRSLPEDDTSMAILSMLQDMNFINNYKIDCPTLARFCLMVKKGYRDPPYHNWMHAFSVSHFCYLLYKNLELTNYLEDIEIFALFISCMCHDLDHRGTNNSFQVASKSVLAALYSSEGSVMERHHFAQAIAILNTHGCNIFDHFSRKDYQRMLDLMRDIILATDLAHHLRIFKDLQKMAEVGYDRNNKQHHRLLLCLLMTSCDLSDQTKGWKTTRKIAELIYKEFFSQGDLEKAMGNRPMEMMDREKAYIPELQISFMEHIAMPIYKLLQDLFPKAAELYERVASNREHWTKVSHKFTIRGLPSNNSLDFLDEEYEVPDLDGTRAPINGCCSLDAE

[6] = biological target: PDE3 from human platelets (Homo sapiens, UniProt Q14432); experiment: PDE3 enzyme assay; format: biochemical; conditions: from PDE inhibition data of Table 1
Chain of PDE3 from human platelets (Q14432 whole entry): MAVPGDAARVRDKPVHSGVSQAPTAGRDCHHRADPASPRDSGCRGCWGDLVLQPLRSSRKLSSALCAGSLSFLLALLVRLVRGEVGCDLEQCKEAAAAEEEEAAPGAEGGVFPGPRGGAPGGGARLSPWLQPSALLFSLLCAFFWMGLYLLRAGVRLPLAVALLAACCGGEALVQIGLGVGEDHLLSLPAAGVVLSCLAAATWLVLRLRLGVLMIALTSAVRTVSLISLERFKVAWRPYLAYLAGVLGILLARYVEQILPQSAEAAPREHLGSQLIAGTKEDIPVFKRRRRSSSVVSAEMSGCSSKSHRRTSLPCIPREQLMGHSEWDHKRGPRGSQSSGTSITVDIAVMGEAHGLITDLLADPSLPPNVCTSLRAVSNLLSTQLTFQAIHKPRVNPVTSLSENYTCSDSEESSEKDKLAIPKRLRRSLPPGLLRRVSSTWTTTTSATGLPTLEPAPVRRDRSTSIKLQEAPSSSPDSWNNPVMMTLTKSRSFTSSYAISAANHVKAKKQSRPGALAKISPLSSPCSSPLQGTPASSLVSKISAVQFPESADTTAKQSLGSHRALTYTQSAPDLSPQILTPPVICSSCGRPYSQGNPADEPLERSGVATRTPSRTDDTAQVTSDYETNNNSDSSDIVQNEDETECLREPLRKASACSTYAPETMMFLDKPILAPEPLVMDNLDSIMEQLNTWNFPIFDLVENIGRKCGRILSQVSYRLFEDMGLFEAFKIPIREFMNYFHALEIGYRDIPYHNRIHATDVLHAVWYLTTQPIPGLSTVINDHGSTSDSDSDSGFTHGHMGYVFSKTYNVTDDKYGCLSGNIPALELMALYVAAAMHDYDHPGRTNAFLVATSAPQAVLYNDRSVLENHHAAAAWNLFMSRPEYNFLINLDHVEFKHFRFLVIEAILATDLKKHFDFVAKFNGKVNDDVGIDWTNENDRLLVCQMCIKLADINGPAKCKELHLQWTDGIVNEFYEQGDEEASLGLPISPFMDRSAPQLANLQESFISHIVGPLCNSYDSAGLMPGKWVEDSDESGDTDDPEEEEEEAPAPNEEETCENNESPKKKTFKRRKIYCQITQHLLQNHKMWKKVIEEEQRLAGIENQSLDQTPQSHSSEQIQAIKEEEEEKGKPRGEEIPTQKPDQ

bovine PDE1 = experiment: PDE1 enzyme assay; format: biochemical; conditions: from PDE inhibition data of Table 1
[7] = biological target: PDE7 purified from Hut78 human T cells (Homo sapiens, UniProt Q13946); experiment: PDE7 enzyme assay; format: biochemical; conditions: from PDE inhibition data of Table 1
Chain of PDE7 purified from Hut78 human T cells (Q13946 whole entry): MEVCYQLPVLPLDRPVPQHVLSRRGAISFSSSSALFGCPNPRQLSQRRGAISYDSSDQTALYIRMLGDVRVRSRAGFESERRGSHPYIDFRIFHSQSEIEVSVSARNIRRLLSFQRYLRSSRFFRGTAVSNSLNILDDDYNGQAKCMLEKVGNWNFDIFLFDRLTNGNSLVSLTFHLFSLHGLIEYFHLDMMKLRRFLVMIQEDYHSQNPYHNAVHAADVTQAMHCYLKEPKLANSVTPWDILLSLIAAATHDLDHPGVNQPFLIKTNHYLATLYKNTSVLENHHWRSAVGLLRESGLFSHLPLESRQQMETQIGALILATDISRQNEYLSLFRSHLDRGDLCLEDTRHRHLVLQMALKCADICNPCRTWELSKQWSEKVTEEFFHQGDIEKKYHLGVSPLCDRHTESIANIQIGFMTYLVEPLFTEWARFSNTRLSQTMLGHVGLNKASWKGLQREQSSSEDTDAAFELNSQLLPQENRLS
Procedure: PDE7 is a cAMP-selective PDE expressed mainly in T cells and in skeletal muscle. T cell-derived cytokines such as IL-2 and IFN-γ are potentially regulatable via PDE7 inhibition. […] Compounds were tested against the PDE7 preparation in the presence of 10 nM cAMP as described for PDE4 in Table 1.

[8] = biological target: T1, PDE6 from bovine retinal rod outer segments (Bos taurus, UniProt P11541+P23439); experiment: PDE6 enzyme assay; format: biochemical; conditions: from PDE inhibition data of Table 1
T1 construct: PDE6 from bovine retinal rod outer segments; from tissue; host or cells: bovine retinal rod outer segments
T1 sequence (P11541 2-856 limits assumed): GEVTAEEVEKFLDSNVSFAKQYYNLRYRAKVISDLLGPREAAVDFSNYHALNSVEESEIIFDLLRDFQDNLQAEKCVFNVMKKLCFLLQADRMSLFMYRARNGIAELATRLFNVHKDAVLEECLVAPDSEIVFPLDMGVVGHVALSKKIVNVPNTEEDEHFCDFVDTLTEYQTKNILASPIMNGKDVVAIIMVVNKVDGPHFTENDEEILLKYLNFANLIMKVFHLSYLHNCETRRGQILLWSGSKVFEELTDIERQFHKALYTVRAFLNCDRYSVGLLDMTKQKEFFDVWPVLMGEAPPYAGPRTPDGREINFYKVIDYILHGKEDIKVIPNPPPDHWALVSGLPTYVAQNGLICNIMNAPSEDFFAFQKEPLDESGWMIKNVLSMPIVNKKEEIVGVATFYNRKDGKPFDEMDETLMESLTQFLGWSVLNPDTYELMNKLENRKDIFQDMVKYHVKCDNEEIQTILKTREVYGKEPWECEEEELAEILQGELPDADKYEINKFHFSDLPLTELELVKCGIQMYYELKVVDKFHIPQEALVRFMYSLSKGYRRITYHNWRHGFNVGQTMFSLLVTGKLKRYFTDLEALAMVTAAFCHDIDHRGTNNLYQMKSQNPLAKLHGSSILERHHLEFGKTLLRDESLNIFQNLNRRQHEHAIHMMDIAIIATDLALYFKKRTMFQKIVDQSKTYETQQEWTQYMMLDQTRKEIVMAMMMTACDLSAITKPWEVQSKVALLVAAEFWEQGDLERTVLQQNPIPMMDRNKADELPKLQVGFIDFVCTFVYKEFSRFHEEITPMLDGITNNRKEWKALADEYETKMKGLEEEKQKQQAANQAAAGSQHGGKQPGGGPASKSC
T1 sequence (P23439 2-850 limits assumed): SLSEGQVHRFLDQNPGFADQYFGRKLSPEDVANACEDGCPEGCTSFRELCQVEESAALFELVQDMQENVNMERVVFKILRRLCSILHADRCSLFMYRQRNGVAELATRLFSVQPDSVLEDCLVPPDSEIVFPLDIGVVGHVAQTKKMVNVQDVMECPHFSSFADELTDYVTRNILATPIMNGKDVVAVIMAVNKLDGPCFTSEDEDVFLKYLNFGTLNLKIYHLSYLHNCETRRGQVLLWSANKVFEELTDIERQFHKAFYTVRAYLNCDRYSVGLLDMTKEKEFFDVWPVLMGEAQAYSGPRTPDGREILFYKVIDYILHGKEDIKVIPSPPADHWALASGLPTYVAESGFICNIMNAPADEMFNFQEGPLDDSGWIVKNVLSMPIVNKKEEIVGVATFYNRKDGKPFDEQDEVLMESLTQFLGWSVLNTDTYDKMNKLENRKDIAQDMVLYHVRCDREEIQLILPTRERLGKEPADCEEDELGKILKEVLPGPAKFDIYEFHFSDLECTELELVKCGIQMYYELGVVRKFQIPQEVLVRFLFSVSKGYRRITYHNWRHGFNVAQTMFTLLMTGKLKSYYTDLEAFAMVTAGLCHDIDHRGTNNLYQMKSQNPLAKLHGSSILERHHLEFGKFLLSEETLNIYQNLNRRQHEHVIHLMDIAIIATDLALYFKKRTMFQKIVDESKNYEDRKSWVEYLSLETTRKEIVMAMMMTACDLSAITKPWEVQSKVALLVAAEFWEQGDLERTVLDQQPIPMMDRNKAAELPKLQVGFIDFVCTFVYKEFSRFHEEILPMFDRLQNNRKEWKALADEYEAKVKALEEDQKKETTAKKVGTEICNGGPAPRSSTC

[9] = EQ in ethanol at 40 °C for 4 weeks
[10] = EQ in heptane at 40 °C for 4 weeks
[11] = EQ in toluene at 40 °C for 4 weeks
[12] = EQ in water at 40 °C for 4 weeks

SMILES: CCOc1cc(C(CS(C)(=O)=O)N2C(=O)c3cccc(NC(C)=O)c3C2=O)ccc1OC (single isomer, unassigned; (+)) [Form A, (+)-2-[1-(3-ethoxy-4-methoxyphenyl)-2-methylsulfonylethyl]-4-acetylaminoisoindoline-1,3-dione]
- solid-state transformation after full adsorption/desorption cycle (XRPD) [1]: none of the forms analyzed underwent substantial solid-state transformation
- mass change of the starting mass of the sample [1]: about 0.4%
- hygroscopicity [1]: substantially nonhygroscopic
- physical stability upon compression (XRPD) [2]: substantially physically stable
- Analysis by XRPD (resulting form) [3]: Form B
- Analysis by XRPD (resulting form) ([4]; 40 °C / 75% RH, 4 weeks): stable
- Analysis by XRPD (resulting form) [4, 9]: stable
- Analysis by XRPD (resulting form) [4, 10]: stable
- Analysis by XRPD (resulting form) [4, 11]: converts to Form C
- Analysis by XRPD (resulting form) [4, 12]: stable

SMILES: CCOc1cc(C(CS(C)(=O)=O)N2C(=O)c3cccc(NC(C)=O)c3C2=O)ccc1OC (racemic) [Racemic Compound, 2-[1-(3-Ethoxy-4-methoxyphenyl)-2-methylsulfonylethyl]-4-acetylaminoisoindoline-1,3-dione]
- PDE Specificity Ratio PDE4/PDE5 [5]: >12000 fold
- PDE Specificity Ratio PDE4/PDE2 (human PDE2): >800 fold
- PDE Specificity Ratio PDE4/PDE3 [6]: >670 fold
- PDE Specificity Ratio PDE4/PDE1 (bovine PDE1): >2700 fold
- PDE Specificity Ratio PDE7 IC50/PDE4 IC50 [7]: 270 fold

SMILES: CCOc1cc(C(CS(C)(=O)=O)N2C(=O)c3cccc(NC(C)=O)c3C2=O)ccc1OC (single isomer, unassigned; (+)) [Form C, (+)-2-[1-(3-ethoxy-4-methoxyphenyl)-2-methylsulfonylethyl]-4-acetylaminoisoindoline-1,3-dione]
- solid-state transformation after full adsorption/desorption cycle (XRPD) [1]: none of the forms analyzed underwent substantial solid-state transformation
- mass change of the starting mass of the sample [1]: about 0.5%
- hygroscopicity [1]: substantially nonhygroscopic
- physical stability upon compression (XRPD) [2]: substantially physically stable
- Analysis by XRPD (resulting form) [3]: Form C
- Analysis by XRPD (resulting form) ([4]; 40 °C / 75% RH, 4 weeks): stable
- Analysis by XRPD (resulting form) [4, 9]: stable
- Analysis by XRPD (resulting form) [4, 10]: stable
- Analysis by XRPD (resulting form) [4, 11]: stable
- Analysis by XRPD (resulting form) [4, 12]: stable

SMILES: CCOc1cc([C@H](CS(C)(=O)=O)N2C(=O)c3cccc(NC(C)=O)c3C2=O)ccc1OC [Compound B]
- PDE Specificity Ratio PDE4/PDE5 [5]: >39000 fold
- PDE Specificity Ratio PDE4/PDE2 (human PDE2): >260 fold
- PDE Specificity Ratio PDE4/PDE3 [6]: >45 fold
- PDE Specificity Ratio PDE4/PDE1 (bovine PDE1): >50 fold
- PDE Specificity Ratio PDE4/PDE6 [8]: >250 fold
